Laboratory results as given in US7737250B2, “Peptides for treating axonal damage, inhibition of neurotransmitter release and pain transmission, and blocking calcium influx in neurons” (Mount Sinai School of Medicine of New York University, priority 2003, dated 2010).

How the values were obtained:
[1] = system: mouse cerebellar granular neurons; assay: Neurite outgrowth assay; format: cell-based; details: 30 μg/ml peptide; for average neurite length: 24 h in culture
Experimental: For neurite outgrowth assays, chick Ng-CAM was purified from chick brain using an antibody-based affinity column according to techniques well known in the art. The anti-Ng-CAM antibody was antibody 8D9 (Developmental Studies Hybridoma Bank, University of Iowa). Then purified chick Ng-CAM (50 μg/ml) or mouse laminin (Invitrogen, 100 μg/ml) was spotted on a 35 mm plastic culture dish at room temperature (RT) for 1 hr. After washing with PBS, the plastic surface was blocked with 1% Bovine Serum Albumin in phosphate buffered saline (13SA/PBS) at RT. Negative control dishes were coated with 1% Bovine Serum Albumin in phosphate buffered saline (BSA/PBS) at RT.
Cerebellar cells were prepared from postnatal day 4 (P4) mouse by trypsinization followed by trituration. Postnatal day 4 (P4) mouse cerebellum was minced in Calcium/Magnesium-free phosphate buffer (Ca/Mg-free PBS). Minced cerebellum was then treated with 0.05% Trypsin (Gibco) in Ca/Mg-free PBS for 15 minutes at 37° C. Trypsinization was halted by addition of 10% Fetal Calf Serum (Hyclone). Trypsinized cells were then triturated 5 times with a fire-polished Pasteur pipette to dissociate the cells. The remaining cell clumps were allowed to settle, and the suspended cells were plated and maintained for use in the neurite outgrowth assays.
Cultured cerebellar cells were resuspended in BME/B-27 medium (BME medium plus B-27 supplement, both from Gibco) supplemented with penicillin/streptomycin (Gibco) to a cell density of 5×10^5 cells/ml. Then 250 μl of this cell suspension was plated on the dishes. AP-YF or AP-Scramble peptides dissolved in Hank's Balanced Salt Solution (Gibco) were added to the plated cells at final concentration of 30 μg/ml. Cultures were incubated at 37° C. for 24 hrs in 5% CO2. These cultures were fixed with 4% paraformaldehyde and images were collected on a Zeiss Axiovert 100TV microscope using a 100× plan neofluor objective. Neurite outgrowth measurements were performed using NIH image software. Data was expressed as average neurite length in μm (+/− standard deviation). P-values were determined using Student's t-test analysis. Microsoft Excel was used to plot the data as % neurites of length greater than Xpm versus neurite length X (in μm).
Mouse cerebellar granular neurons were plated on tissue culture dishes coated with chick Ng-CAM, a chick homolog of L1-CAM, or on tissue culture dishes coated with mouse laminin. The Ng-CAM substrate interacts with cell-surface L1-CAM, while laminin substrate interacts with cell surface integrins and therefore serves as the negative control. These cultures were treated with either AP-YF or AP-Scramble peptides. After 24 hours of culture, the neurons were fixed and neurite outgrowth lengths w-ere measured by NIH image software degree (in μm).

[2] = system: complex containing L1-CAM, ankyrin B and Cav2.2; assay: Co-precipitation of L1-CAM and ankyrin B with Cav2.2 channel protein from DRG neurons; format: cell-based; details: chick DRG neurons treated with saline; peptide pretreatment
Experimental: Co-precipitation: 1×10^6 DRG cells were used for each condition. DRG neurons were exposed to control solution containing 100 μM bicuculline or 100 μM GABA in the presence of 100 μM bicuculline. After agonist treatment, DRG neurons were lysed with ice-cold buffer (phosphate buffered saline, pH 7.4, containing 250 μM sodium pervanadate, 1% (v/v) NP-40, 1 mM Pefabloc, 1 mM EDTA, 1 mM EGTA, 10 μg/ml pepstatin, 10 μg/ml leupeptin, and 100 μg/ml soybean trypsin inhibitor, 100 μg/ml calpain I and 100 μg/ml calpain II inhibitors. The α1subunit of the Cav2.2 channel was immunoprecipitated as previously described (Schiff, M. L et al., (2000). Nature 408:723-726.).
Cell culture, transmitter application: Cell culture and transmitter application, were performed as described in Example 10, supra. For experiments determining the effect of activation of GABAB receptors upon L1-CAM-ankyrin-calcium channel interaction in DRG neurons, calcium channels were precipitated from DRG neurons treated with saline or baclofen for 20 seconds using anti-pan alpha 1 antibody and then immunoblotted for ankyrin (anti-ankyrin B antibody) or L1-CAM (8D9 anti-NgCAM).

Sequence | average neurite length ([1]; on Ng-CAM substrate) | co-precipitation of L1-CAM and ankyrin B with Cav2.2 channel protein [2] | neurite extension above control levels ([1]; on Ng-CAM substrate, 24 h, vs AP-Scramble) | axon extension on laminin ([1]; on laminin substrate, 24 h, vs AP-Scramble)
RQIKIWFQNRRMKWKKFQGIFSGDENFQ [AP-Scramble] | 21 μm | not |  | 
RQIKIWFQNRRMKWKKQFNEDGSFIGQF [AP-YF] | 32 μm | abolished the interaction | 55% | not significantly affected
